Reference: ChEMBL document CHEMBL5137044, “Expansion of the S-CN-DABO scaffold to exploit the impact on inhibitory activities against the non-nucleoside HIV-1 reverse transcriptase” (Eur J Med Chem, 2022)

Legend:
[1] = test system: Human immunodeficiency virus 1; experiment: Antiviral activity against […] HIV-1 infected in human MT4 cells assessed as reduction in virus-induced cytopathic effect incubated for 5 days by MTT assay; format: functional, organism-based; settings: Human immunodeficiency virus 1, MT4, 120 h
[2] = Cytotoxicity against human MT4 cells assessed as cell growth inhibition incubated for 5 days by MTT assay; format: toxicity, cell-based; settings: time 5 day
[3] = test system: Human immunodeficiency virus 1; experiment: Antiviral activity against drug-resistant HIV-1 Y181C mutant infected in human MT4 cells assessed as reduction in virus-induced cytopathic effect incubated for 5 days by MTT assay; format: functional, organism-based; settings: Human immunodeficiency virus 1, Y181C mutant, MT4, 120 h
[4] = test system: Human immunodeficiency virus 1; experiment: Antiviral activity against drug-resistant HIV-1 Y188L mutant infected in human MT4 cells assessed as reduction in virus-induced cytopathic effect incubated for 5 days by MTT assay; format: functional, organism-based; settings: Human immunodeficiency virus 1, Y188L mutant, MT4, 120 h
[5] = test system: Human immunodeficiency virus 1; experiment: Antiviral activity against drug-resistant HIV-1 E138K mutant infected in human MT4 cells assessed as reduction in virus-induced cytopathic effect incubated for 5 days by MTT assay; format: functional, organism-based; settings: Human immunodeficiency virus 1, E138K mutant, MT4, 120 h
[6] = target: Human immunodeficiency virus type 1 reverse transcriptase (Human immunodeficiency virus 1, UniProt Q72547); experiment: Inhibition of recombinant wild-type p66/p51 HIV-1 reverse transcriptase incubated for 40 mins by picogreen dye-based spectrofluorometric analysis
Cytochrome P450 2C9 = Cytochrome P450 2C9 (Homo sapiens, UniProt P11712); experiment: Inhibition of CYP2C9 in human liver microsomes using […] as substrate incubated for 15 to 40 mins in presence of NADPH; format: ADME, Microsome
Cytochrome P450 1A2 = target: T1, Cytochrome P450 1A2 (Homo sapiens, UniProt P05177); experiment: Inhibition of CYP1A2 in human liver microsomes using phenacetin as substrate incubated for 15 to 40 mins in presence of NADPH; format: ADME, Microsome
T1 sequence (P05177 whole entry): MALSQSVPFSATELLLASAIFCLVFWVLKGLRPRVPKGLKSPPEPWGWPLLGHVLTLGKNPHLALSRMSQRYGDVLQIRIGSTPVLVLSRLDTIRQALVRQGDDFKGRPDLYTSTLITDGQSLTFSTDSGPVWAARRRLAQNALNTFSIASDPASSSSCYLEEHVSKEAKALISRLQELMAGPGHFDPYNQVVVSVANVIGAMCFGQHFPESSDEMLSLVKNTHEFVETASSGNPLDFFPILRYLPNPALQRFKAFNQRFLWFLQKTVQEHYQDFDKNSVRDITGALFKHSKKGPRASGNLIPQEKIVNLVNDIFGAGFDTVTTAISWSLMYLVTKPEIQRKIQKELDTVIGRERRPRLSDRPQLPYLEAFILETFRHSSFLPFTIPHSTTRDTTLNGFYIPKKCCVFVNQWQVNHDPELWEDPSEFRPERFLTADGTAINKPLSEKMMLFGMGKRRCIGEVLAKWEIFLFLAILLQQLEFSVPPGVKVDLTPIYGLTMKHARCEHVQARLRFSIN

Cytochrome P450 2C19 = Cytochrome P450 2C19 (Homo sapiens, UniProt P33261); experiment: Inhibition of CYP2C19 in human liver microsomes using s-mephenytoin as substrate incubated for 15 to 40 mins in presence of NADPH; format: ADME, Microsome
Cytochrome P450 3A4 = Cytochrome P450 3A4 (Homo sapiens, UniProt P08684); experiment: Inhibition of CYP3A4M in human liver microsomes using midazolam as substrate incubated for 15 to 40 mins in presence of NADPH; format: ADME, Microsome
[7] = Half life in Sprague-Dawley rat at 10 mg/kg,po measured upto 24 hrs by LC-MS/MS analysis; format: ADME, organism-based; settings: in vivo
[8] = Half life in Sprague-Dawley rat at 1 mg/kg,iv measured upto 24 hrs by LC-MS/MS analysis; format: ADME, organism-based; settings: in vivo
[9] = Tmax in Sprague-Dawley rat at 10 mg/kg,po measured upto 24 hrs by LC-MS/MS analysis; format: ADME, organism-based; settings: in vivo
[10] = Tmax in Sprague-Dawley rat at 1 mg/kg,iv measured upto 24 hrs by LC-MS/MS analysis; format: ADME, organism-based; settings: in vivo
[11] = Cmax in Sprague-Dawley rat at 1 mg/kg,iv measured upto 24 hrs by LC-MS/MS analysis; format: ADME, organism-based; parameters: dose 1 mg/kg, time < 24 hrs, route iv; settings: in vivo
[12] = C0 in Sprague-Dawley rat at 1 mg/kg,iv measured upto 24 hrs by LC-MS/MS analysis; format: ADME, organism-based; settings: in vivo
[13] = AUC (0 to t) in Sprague-Dawley rat at 10 mg/kg,po measured upto 24 hrs by LC-MS/MS analysis; format: ADME, organism-based; parameters: dose 10 mg/kg, time < 24 hrs, route po; settings: in vivo
[14] = AUC (0 to infinity) in Sprague-Dawley rat at 10 mg/kg,po measured upto 24 hrs by LC-MS/MS analysis; format: ADME, organism-based; parameters: dose 10 mg/kg, time < 24 hrs, route po; settings: in vivo
[15] = AUC (0 to infinity) in Sprague-Dawley rat at 1 mg/kg,iv measured upto 24 hrs by LC-MS/MS analysis; format: ADME, organism-based; parameters: dose 1 mg/kg, time < 24 hrs, route iv; settings: in vivo
[16] = Apparent volume of distribution in Sprague-Dawley rat at 1 mg/kg,iv measured upto 24 hrs by LC-MS/MS analysis; format: ADME, organism-based; settings: in vivo, read-out: Vz
[17] = Clearance in Sprague-Dawley rat at 10 mg/kg,po measured upto 24 hrs by LC-MS/MS analysis; format: ADME, organism-based; settings: in vivo
[18] = Clearance in Sprague-Dawley rat at 1 mg/kg,iv measured upto 24 hrs by LC-MS/MS analysis; format: ADME, organism-based; settings: in vivo
[19] = MRT(0 to t) in Sprague-Dawley rat at 10 mg/kg,po measured upto 24 hrs by LC-MS/MS analysis; format: ADME, organism-based; settings: in vivo
[20] = MRT(0 to t) in Sprague-Dawley rat at 1 mg/kg,iv measured upto 24 hrs by LC-MS/MS analysis; format: ADME, organism-based; settings: in vivo
[21] = MRT (0 to infinity) in Sprague-Dawley rat at 1 mg/kg,iv measured upto 24 hrs by LC-MS/MS analysis; format: ADME, organism-based; settings: in vivo
[22] = Acute toxicity in mouse assessed as body weight change at 1 g/Kg,IG monitored for 2 weeks; settings: in vivo, po, 1000 mg/kg, 336 h
[23] = Acute toxicity in healthy mouse assessed as brain damage at 1 g/Kg,IG monitored for 2 weeks by HE staining based assay; format: tissue-based; settings: in vivo, po, 1000 mg/kg, 336 h
[24] = Acute toxicity in healthy mouse assessed as heart damage at 1 g/Kg,IG monitored for 2 weeks by HE staining based assay; format: tissue-based; settings: in vivo, po, 1000 mg/kg, 336 h
[25] = Acute toxicity in healthy mouse assessed as liver damage at 1 g/Kg,IG monitored for 2 weeks by HE staining based assay; format: tissue-based; settings: in vivo, po, 1000 mg/kg, 336 h
[26] = Acute toxicity in healthy mouse assessed as spleen damage at 1 g/Kg,IG monitored for 2 weeks by HE staining based assay; format: tissue-based; settings: in vivo, po, 1000 mg/kg, 336 h
hERG = hERG (Homo sapiens, UniProt Q12809); experiment: Inhibition of human ERG expressed in CHO cells at 40 uM at -80 mV holding potential by automated patch clamp method relative to control; format: toxicity, cell-based; settings: CHO cells that express hERG
[27] = Fold resistance, ratio of EC50 for antiviral activity against drug-resistant HIV-1 Y181C mutant infected in human MT4 cells to EC50 for antiviral activity against […] HIV-1 infected in human MT4 cells; format: functional
[28] = Fold resistance, ratio of EC50 for antiviral activity against drug-resistant HIV-1 E138K mutant infected in human MT4 cells to EC50 for antiviral activity against […] HIV-1 infected in human MT4 cells; format: functional

Chain of Cytochrome P450 3A4 (P08684 whole entry): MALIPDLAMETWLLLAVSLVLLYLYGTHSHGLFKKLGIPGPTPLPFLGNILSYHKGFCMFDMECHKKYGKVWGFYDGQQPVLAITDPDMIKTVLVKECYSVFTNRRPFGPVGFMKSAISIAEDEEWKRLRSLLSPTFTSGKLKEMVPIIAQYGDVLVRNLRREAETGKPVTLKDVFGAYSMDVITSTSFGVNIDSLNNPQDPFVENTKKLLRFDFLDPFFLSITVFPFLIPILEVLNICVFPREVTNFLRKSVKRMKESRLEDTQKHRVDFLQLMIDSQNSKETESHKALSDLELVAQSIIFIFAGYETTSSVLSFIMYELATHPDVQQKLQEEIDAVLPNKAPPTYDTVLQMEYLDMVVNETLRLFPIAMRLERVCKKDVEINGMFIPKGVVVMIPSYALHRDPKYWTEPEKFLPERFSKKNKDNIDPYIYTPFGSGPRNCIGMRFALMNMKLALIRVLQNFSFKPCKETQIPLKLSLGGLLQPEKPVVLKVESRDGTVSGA
Chain of hERG (Q12809 whole entry): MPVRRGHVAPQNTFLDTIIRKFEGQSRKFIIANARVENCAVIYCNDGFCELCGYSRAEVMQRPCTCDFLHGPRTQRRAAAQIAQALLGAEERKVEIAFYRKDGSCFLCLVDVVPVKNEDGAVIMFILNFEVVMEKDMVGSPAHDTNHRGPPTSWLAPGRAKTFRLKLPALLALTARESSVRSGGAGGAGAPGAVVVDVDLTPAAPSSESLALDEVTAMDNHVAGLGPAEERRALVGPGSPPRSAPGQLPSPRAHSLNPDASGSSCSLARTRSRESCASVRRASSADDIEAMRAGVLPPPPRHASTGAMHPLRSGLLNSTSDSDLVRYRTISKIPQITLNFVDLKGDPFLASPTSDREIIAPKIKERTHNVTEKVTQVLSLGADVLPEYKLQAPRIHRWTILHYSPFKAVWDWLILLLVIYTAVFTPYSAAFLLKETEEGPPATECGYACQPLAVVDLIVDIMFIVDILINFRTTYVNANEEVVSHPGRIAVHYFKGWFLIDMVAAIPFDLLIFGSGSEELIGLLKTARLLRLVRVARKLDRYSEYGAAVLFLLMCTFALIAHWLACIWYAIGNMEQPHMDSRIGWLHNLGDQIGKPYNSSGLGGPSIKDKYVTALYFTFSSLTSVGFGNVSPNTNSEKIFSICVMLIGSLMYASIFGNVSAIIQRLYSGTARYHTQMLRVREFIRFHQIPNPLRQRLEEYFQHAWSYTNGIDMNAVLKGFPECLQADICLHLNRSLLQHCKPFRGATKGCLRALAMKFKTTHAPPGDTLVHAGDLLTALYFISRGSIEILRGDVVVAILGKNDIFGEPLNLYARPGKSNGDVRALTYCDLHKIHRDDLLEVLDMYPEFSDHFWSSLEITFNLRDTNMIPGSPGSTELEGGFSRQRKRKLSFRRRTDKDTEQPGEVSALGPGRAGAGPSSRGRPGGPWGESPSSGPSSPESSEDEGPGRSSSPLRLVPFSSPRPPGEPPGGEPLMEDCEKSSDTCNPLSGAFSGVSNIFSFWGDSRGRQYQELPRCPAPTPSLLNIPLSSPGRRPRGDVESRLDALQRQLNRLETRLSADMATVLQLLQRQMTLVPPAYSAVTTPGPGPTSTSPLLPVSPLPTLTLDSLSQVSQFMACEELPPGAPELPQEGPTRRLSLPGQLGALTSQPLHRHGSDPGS
Chain of Cytochrome P450 2C9 (P11712 whole entry): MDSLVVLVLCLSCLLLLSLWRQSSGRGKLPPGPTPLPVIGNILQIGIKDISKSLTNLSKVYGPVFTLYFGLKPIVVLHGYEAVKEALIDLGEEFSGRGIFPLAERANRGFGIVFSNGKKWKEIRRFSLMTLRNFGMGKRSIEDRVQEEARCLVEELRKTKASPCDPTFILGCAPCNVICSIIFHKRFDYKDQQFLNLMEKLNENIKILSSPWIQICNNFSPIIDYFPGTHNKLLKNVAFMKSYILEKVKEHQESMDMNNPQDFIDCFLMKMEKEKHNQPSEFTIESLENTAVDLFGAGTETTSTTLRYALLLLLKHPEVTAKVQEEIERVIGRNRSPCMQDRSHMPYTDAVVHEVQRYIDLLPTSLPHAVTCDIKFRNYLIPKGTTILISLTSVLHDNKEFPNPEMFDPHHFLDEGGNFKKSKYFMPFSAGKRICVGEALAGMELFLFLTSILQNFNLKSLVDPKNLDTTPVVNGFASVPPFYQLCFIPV
Chain of Cytochrome P450 2C19 (P33261 whole entry): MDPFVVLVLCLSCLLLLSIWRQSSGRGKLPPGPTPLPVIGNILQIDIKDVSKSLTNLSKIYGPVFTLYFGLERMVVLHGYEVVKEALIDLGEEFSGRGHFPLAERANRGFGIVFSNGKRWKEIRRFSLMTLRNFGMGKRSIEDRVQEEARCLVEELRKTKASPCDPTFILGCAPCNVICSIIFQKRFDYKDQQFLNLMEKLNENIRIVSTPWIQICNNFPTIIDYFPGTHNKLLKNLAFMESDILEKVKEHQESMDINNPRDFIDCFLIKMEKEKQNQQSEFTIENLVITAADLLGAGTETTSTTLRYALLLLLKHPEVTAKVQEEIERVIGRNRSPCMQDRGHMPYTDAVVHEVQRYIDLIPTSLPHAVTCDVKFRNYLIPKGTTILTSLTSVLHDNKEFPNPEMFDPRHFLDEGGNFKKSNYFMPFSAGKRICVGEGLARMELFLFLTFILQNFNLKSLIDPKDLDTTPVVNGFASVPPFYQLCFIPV

Which EC50 [1] does the source give for `Cc1c(C(C#N)c2c(F)cccc2F)nc(SC(C)C)[nH]c1=O` (stereo not drawn) here?
The EC50 was 20.8 nM.

And the CC50 at 120 h [2]?
The CC50 at 120 h was 137 µM.

And the EC50 [3]?
The EC50 was 750 nM.

And the EC50 [4]?
Its EC50 is 69 µM.

What about the EC50 [5] of the same compound?
Its EC50 is 50 nM.

What about the IC50 [6] of the same compound?
Its IC50 is 79 nM.

What about the IC50 (Cytochrome P450 2C9) of the same compound?
The IC50 was 40.4 µM.

What about the IC50 (Cytochrome P450 1A2) of the same compound?
The IC50 was greater than 50 µM.

And the IC50 (Cytochrome P450 2C19)?
Its IC50 is 35.3 µM.

And the IC50 (Cytochrome P450 3A4)?
The IC50 was greater than 50 µM.

What about the half-life [7] of the same compound?
Its half-life is 263 min.

And the half-life [8]?
The half-life was 244 min.

What about the Tmax [9] of the same compound?
Its Tmax is 3.5 h.

And the Tmax [10]?
Its Tmax is 4.8 min.

What about the Cmax [11] of the same compound?
The Cmax was 7620 ng/mL.

And the C0 at 24 h [12]?
The C0 at 24 h was 9310 ng/mL.

And the AUC(0-t) at 24 h [13]?
The AUC(0-t) at 24 h was 133 µg·h/mL.

And the AUC(0-inf) [14]?
Its AUC(0-inf) is 136 µg·h/mL.

What about the AUC(0-inf) [15] of the same compound?
Its AUC(0-inf) is 8320 ng·h/mL.

And the Vd [16]?
Its Vd is 0.764 L/kg.

What about the CL/F [17] of the same compound?
The CL/F was 1.24 mL/min/kg.

What about the clearance [18] of the same compound?
The clearance was 2.13 mL/min/kg.

What about the MRT last at 24 h [19] of the same compound?
Its MRT last at 24 h is 6.2 h.

And the MRT last at 24 h [20]?
Its MRT last at 24 h is 2.25 h.

And the MRT inf [21]?
Its MRT inf is 2.41 h.

What about the Activity [22] of the same compound?
Its Activity is “Non-Toxic”.

And the Activity [23]?
The Activity was “Non-Toxic”.

And the Activity [24]?
Its Activity is “Non-Toxic”.

And the Activity [25]?
The Activity was “Non-Toxic”.

What about the Activity [26] of the same compound?
The Activity was “Non-Toxic”.

And the inhibition at 40 µM (hERG)?
Its inhibition at 40 µM is 29.4%.

And the “Ratio EC50” value [27]?
Its value is 36.

What about the “Ratio EC50” value [28] of the same compound?
Its value is 2.
